Entries after “also recorded” stand apart in the source; their conditions may differ. Each block holds one molecule with its values, some of them ahead of it.
What was measured:
[1] = biologically acceptable vehicle, neutral pH range; cited from earlier work
[2] = Color of 4-alkylresorcinol solutions after storage (visual appearance and L*a*b*, Labscan XE); type: physicochemical
Protocol: (§1) Samples were prepared by dissolving 4-hexylresorcinol (HR) (200 mg) or 4-ethylresorcinol (ER) (200 mg) in DI water:butylene glycol (4:1; 20 ml) to generate a clear colorless homogeneous solution. A portion of each solution (5 ml) was added to a 20 ml scintilation vial containing either niacinamide (B3) (50 mg), NDAC (N,N′-diacetyl-L-cystine) (50 mg), NACys (N-acetyl-L-cysteine) (50 mg), B3 (50 mg)+NDAC (50 mg) or B3 (50 mg)+NACys (50 mg). A hydrogen sulfide (H2S) test strip (Sigma) was placed above the sample solution and the samples sealed. Odor and H2S generation (unchanged test strip white color=no H2S generated; changed test strip brown/black color=H2S generated) were monitored for 2 weeks at R.T. (about 20 to about 22° C.).
After 2 weeks of storage at R.T. (about 20 to about 22° C.), the color of each solution was assessed visually. Additionally, L*a*b* measurements determined experimentally using a Labscan XE instrument (Hunter Associates Labs Inc., Reston, Va.) and processed with Universal Software (version 4.10). The L* parameter measures darkness and lightness and ranges from black (L*=0) to white (L*=100). The a* parameter measures color content and intensity ranging from green (a*<0) to neutral grey (a*=0) to red (a*>0). The b* parameter also measures color content and intensity ranging from blue (b*<0) to neutral grey (b*=0) to yellow (b*>0).

[3] = HPLC quantitation of 4-hexylresorcinol (HR) remaining after storage; type: physicochemical
Protocol: The amount of 4-hexylresorcinol (HR) or 4-ethylresorcinol (ER) present in each of the samples used for the color measurements was quantitated after 2 weeks @ R.T. (˜20-22° C.) by high performance liquid chromatography (HPLC). A sample aliquot (100 uL) from each of the color measurement solutions was diluted with DI water:acetonitrile (1:1, 900 uL) to generate test samples (1 ml). An aliquot (10 uL) from each test sample was injected into a Waters 2695 Separations Module, chromatographed and separated on a Restek Pinnacle DB C18 (5 μm, 4.6×150 mm) column operated at 30° C. and the 4-alkylresorcinols monitored using a Waters 2996 Photodiode Array Detector set @ 281 nm. […] Standard control samples of HR at 1×, 5×higher and 5×lower concentrations were prepared fresh and immediately analysed; standard curves were generated within the test sample range and linearity was confirmed.
All samples were analyzed in duplicate and the mean value reported. The amount of 4-alkylresorcinol present for each test sample after 2 weeks was determined by measuring the chromatographic peak area under the curve @ 281 nm for HR and expressed as the percent ratio over the corresponding chromatographic peak area under the curve @ 281 nm for the freshly prepared control sample.

[4] = Odor and H2S generation of 4-alkylresorcinol solutions during storage; type: physicochemical; conditions: as stabilizer of 4-substituted resorcinols
Protocol: as §1

[5] = freshly prepared solution of HR

Structure (SMILES): N[C@@H](CSSC[C@H](N)C(=O)O)C(=O)O [cystine]
solubility [1]: extremely low

Structure (SMILES): CC(=O)N[C@@H](CSSC[C@H](NC(C)=O)C(=O)O)C(=O)O [NDAC, N,N′-diacetyl-L-Cystine]
prevention of color formation / discoloration (in words) ([2]; after 2 weeks at R.T., in the presence or absence of B3): effective | sulfurous odor generation by the stabilizer (in words) [4]: no sulfurous odor generation

Structure (SMILES): CCOC(=O)[C@@H](N)CSSC[C@H](N)C(=O)OCC [DEC, Cystine diethyl ester]
sulfurous odor generation by the stabilizer (in words) [4]: sulfurous odor generating

Continued, in another order:

color of freshly prepared solution [2, 5]: colorless | decomposition of HR upon HPLC analysis [3, 5]: no decomposition
Structure (SMILES): CCCCCCc1ccc(O)cc1O [HR, 4-hexylresorcinol]

stabilizing resorcinol derivatives (in words) [3]: effective
Structure (SMILES): CC(=O)N[C@@H](CS)C(=O)O [NACys, N-acetyl-L-cysteine]
sulfurous odor generation by the stabilizer (in words) [4]: generates sulforous odor; also recorded: sulfurous odor generating; also recorded: upleasant sulfurous odor
